# Test results as given in patent US8901118B2, “Compounds and methods for kinase modulation, and indications therefor” (Plexxikon Inc., priority 2010, dated 2014).
# pIC50: −log10 of the molar value.
# Biological target: T1, Flt-3 kinase (Homo sapiens, UniProt P36888)
# T1 sequence (P36888 27-993): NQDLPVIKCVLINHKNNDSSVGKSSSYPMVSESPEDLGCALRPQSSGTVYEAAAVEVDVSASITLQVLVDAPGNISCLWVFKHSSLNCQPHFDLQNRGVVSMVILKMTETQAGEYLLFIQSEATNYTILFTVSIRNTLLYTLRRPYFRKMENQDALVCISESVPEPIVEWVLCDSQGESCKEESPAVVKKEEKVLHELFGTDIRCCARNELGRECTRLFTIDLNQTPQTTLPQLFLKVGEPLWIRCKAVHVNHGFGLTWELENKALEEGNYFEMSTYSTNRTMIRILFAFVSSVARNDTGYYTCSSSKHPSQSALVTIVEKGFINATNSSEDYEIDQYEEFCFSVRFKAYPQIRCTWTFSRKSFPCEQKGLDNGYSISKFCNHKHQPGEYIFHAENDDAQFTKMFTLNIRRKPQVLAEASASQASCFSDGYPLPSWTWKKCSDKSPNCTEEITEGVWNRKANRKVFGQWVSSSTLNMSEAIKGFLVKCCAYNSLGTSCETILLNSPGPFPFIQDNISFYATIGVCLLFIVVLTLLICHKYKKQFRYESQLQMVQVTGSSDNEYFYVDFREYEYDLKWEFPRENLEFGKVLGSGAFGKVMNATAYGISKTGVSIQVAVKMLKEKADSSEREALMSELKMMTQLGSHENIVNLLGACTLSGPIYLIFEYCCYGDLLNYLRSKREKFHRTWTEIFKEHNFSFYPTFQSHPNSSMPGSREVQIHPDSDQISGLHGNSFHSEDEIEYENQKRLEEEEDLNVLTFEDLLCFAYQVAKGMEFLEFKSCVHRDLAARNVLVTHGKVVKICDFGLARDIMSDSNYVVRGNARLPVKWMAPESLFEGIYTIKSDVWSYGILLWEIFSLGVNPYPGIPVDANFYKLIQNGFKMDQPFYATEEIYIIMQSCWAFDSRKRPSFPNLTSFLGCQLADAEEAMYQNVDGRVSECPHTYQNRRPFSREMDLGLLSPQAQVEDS
# Assay: Flt-3 kinase biochemical activity assay (AlphaScreen)
# Conditions: 100 μM ATP; read-out: Biochemical Inhibition IC50 Flt3
# Procedure: In one assay the biochemical activity IC50 values are determined with respect to inhibition of Flt-3 kinase activity, where inhibition of phosphorylation of a peptide substrate is measured as a function of compound concentration. Compounds to be tested, dissolved in DMSO (1 μL), are added to a white 384-well plate (Costar #3705). Working stocks of Flt-3 kinase (Invitrogen), biotin-(E4Y)10 substrate (Upstate Biotech, Cat#12-440), and ATP (Sigma, Cat#A-3377) are prepared in 25 mM Hepes pH 7.5, 5 mM MgCl2, 5 mM MnCl2, 1 mM DTT, and 0.01% Tween-20. All components are added to the 384-well plate for a final concentration of 1 ng/well Flt-3, 30 nM biotin-(E4Y)10 and 100 μM ATP in a volume of 20 μL. Each sample is at 5% DMSO. The plate is then incubated for 1 hour at room temperature. Just before use, working stocks of donor and acceptor beads from the AlphaScreen PY20 Detection Kit (PerkinElmer, Cat#676601M) are prepared in 25 mM Hepes pH 7.5, pH 7.4, 100 mM EDTA. 0.3% BSA. To stop the reaction, the plate is uncovered in the dark and 5 μL of Donor Beads solution (Streptavidin beads) is added to each well. The plate is incubated at room temperature for 20 minutes. Five microliters of Acceptor Beads solution (PY20 coated beads) are then added to each well. The final concentration of each bead is 10 μg/mL. The plates are incubated at room temperature for 60 minutes. Fluorescence signal is recorded on the Envision reader. Phosphorylated substrate results in binding of the PY20 antibody and association of the donor and acceptor beads such that signal correlates with kinase activity. The signal vs. compound concentration is used to determine the IC50.
row,pIC50,Compound
1,< 6.00,"Fc1nc(NC2CCC(F)(F)CC2)ccc1Cc1c[nH]c2ncc(Cl)cc12 [Compound P-3013, [5-(5-Chloro-1H-pyrrolo[2,3-b]pyridin-3-ylmethyl)-6-fluoro-pyridin-2-yl]-(4,4-difluoro-cyclohexyl)-amine]"
2,> 7.00,"Cc1cnc2[nH]cc(Cc3cnc(Nc4ccc(F)cc4)nc3)c2c1 [Compound P-3010, (4-Fluoro-phenyl)-[5-(5-methyl-1H-pyrrolo[2,3-b]pyridin-3-ylmethyl)-pyrimidin-2-yl]-amine]"
3,> 6.00,"Fc1ccccc1Nc1ncc(Cc2c[nH]c3ncc(Cl)cc23)cn1 [Compound P-3014, [5-(5-Chloro-1H-pyrrolo[2,3-b]pyridin-3-ylmethyl)-pyrimidin-2-yl]-(2-fluoro-phenyl)-amine]"
4,> 7.00,"Clc1cnc2[nH]cc(Cc3cnc(Nc4ccccc4Cl)nc3)c2c1 [Compound P-3015, (2-Chloro-phenyl)-[5-(5-chloro-1H-pyrrolo[2,3-b]pyridin-3-ylmethyl)-pyrimidin-2-yl]-amine]"
5,> 7.00,"Fc1ccc(Nc2ncc(Cc3c[nH]c4ncc(Cl)cc34)cn2)cc1 [Compound P-3012, [5-(5-Chloro-1H-pyrrolo[2,3-b]pyridin-3-ylmethyl)-pyrimidin-2-yl]-(4-fluoro-phenyl)-amine]"
6,> 8.00,"Clc1ccc(Nc2ncc(Cc3c[nH]c4ncc(Cl)cc34)cn2)cc1 [Compound P-3011, (4-Chloro-phenyl)-[5-(5-chloro-1H-pyrrolo[2,3-b]pyridin-3-ylmethyl)-pyrimidin-2-yl]-amine]"

# Test system: BCR-FMS BaF3 cells
# Assay: Splenomegaly mouse model, BCR-FMS BaF3 cells
# Type: in vivo
# Conditions: dosed at 5 mg/kg
# Procedure: BaF3 cells are engineered with any of BCR-FMS, BCR-TRK1 or BCR-TRK2 to assess in vivo inhibitory effects of Fms, TrkA or TrkB inhibition, respectively. BaF3 cells are maintained in growth media (RPMI containing 10% FBS, 1% PenStrep, 1% NEAA, and 1% L-Glutamine, supplemented with 5% murine IL-3 and 1 mg/mL G418). Four days prior to start, 2×10^6 cells are inoculated into a T150 vented flask using the growth media and incubated at 37° C. in 5% CO2 for three days. One day prior to start, cells are collected by centrifugation and are suspended in growth media without IL-3. On the day of cell implant, the cells are collected by centrifugation, rinsed 3×20 mL with RPMI, then are suspended in 5.4 mL of media and counted, then adjusted with additional RPMI as needed to give 5×10^7 cells/mL. On day 1, female nu/nu mice at 5-6 weeks of age are injected intravenously with BaF3 cells injected injecting 0.1 mL (5×10^6) cells in the tail vein (mice without cell injected are included as control group). Compound stocks in dimethylsulfoxide are stored at room temperature protected from light. Stocks are diluted prior to dosing, diluting 22 μL of compound stock into 858 μL of diluent (or 50 μL into 1950 μL) to provide vehicle of 1.0% Polysorbate 80, 0.5% hydroxypropyl methyl cellulose, with final dimethylsulfoxide at 2.5% in all dosing suspensions and vehicle control. Dosing suspension is prepared prior to use, mixing by inversion and sonication in a water bath to make a uniform suspension. On days 10-18, mice are treated with vehicle only or the desired level of compound in vehicle, ˜0.2 mL per 25 gm mouse, once a day by oral gavage, or in some instances, twice per day. On day 18, mice are administered a final dose and two hours later a plasma sample is taken. At four hours following the final dose, mice are sacrificed, an additional plasma sample is collected and mouse spleens are removed and weighed. The average spleen weight of vehicle control group mice is compared to the average spleen weight of the test compound mice. Percent spleen growth inhibition is calculated as 100×[(spleen weight vehicle control-spleen weight test compound)/spleen weight vehicle control]. In some instances, the compounds were not tested in all of the assays as indicated by NA in the table below.
row,Compound,"% spleen growth inhibition, Fms [%]"
1,"O=C(c1ccc(Nc2ccc(C3CC3)nc2)nc1F)c1c[nH]c2ncnc(NCC(F)(F)F)c12 [Compound P-4090, [6-[(6-cyclopropyl-3-pyridyl)amino]-2-fluoro-3-pyridyl]-[4-(2,2,2-trifluoroethylamino)-7H-pyrrolo[2,3-d]pyrimidin-5-yl]methanone]",38
2,"CCNc1ncnc2[nH]cc(C(=O)c3ccc(Nc4ccc(CC)nc4)nc3F)c12 [Compound P-4123, [4-(ethylamino)-7H-pyrrolo[2,3-d]pyrimidin-5-yl]-[6-[(6-ethyl-3-pyridyl)amino]-2-fluoro-3-pyridyl]methanone]",14

# Same assay, conditions: dosed once per day at 10 mg per kg
row,Compound,"% spleen growth inhibition, Fms [%]"
1,"COc1ccc(Nc2ccc(C(=O)c3c[nH]c4ncnc(NCC(F)(F)F)c34)c(F)n2)cn1 [Compound P-4084, [2-fluoro-6-[(6-methoxy-3-pyridyl)amino]-3-pyridyl]-[4-(2,2,2-trifluoroethylamino)-7H-pyrrolo[2,3-d]pyrimidin-5-yl]methanone]",6.2
2,"Fc1nc(NC2CCC(F)(F)CC2)ccc1Cc1c[nH]c2ncc(Cl)cc12 [Compound P-3013, [5-(5-Chloro-1H-pyrrolo[2,3-b]pyridin-3-ylmethyl)-6-fluoro-pyridin-2-yl]-(4,4-difluoro-cyclohexyl)-amine]",48
3,"Cc1cnc2[nH]cc(Cc3cnc(Nc4ccc(F)cc4)nc3)c2c1 [Compound P-3010, (4-Fluoro-phenyl)-[5-(5-methyl-1H-pyrrolo[2,3-b]pyridin-3-ylmethyl)-pyrimidin-2-yl]-amine]",47
4,"O=C(c1ccc(NC2CCC(F)(F)CC2)nc1F)c1c[nH]c2ncnc(NCC(F)(F)F)c12 [Compound P-4061, [6-[(4,4-difluorocyclohexyl)amino]-2-fluoro-3-pyridyl]-[4-(2,2,2-trifluoroethylamino)-7H-pyrrolo[2,3-d]pyrimidin-5-yl]methanone]",48
5,"Cc1ccc(Nc2ccc(C(=O)c3c[nH]c4ncnc(NCC(F)(F)F)c34)c(F)n2)cn1 [Compound P-4112, [2-fluoro-6-[(6-methyl-3-pyridyl)amino]-3-pyridyl]-[4-(2,2,2-trifluoroethylamino)-7H-pyrrolo[2,3-d]pyrimidin-5-yl]methanone]",9.5
6,"O=C(c1ccc(NC2CCC(F)(F)CC2)nc1F)c1c[nH]c2ncnc(NC3CC3)c12 [Compound P-4062, [4-(cyclopropylamino)-7H-pyrrolo[2,3-d]pyrimidin-5-yl]-[6-[(4,4-difluorocyclohexyl)amino]-2-fluoro-3-pyridyl]methanone]",76
7,"CCc1ccc(Nc2ccc(C(=O)c3c[nH]c4ncnc(NCC(F)(F)F)c34)c(F)n2)cn1 [Compound P-4120, [6-[(6-ethyl-3-pyridyl)amino]-2-fluoro-3-pyridyl]-[4-(2,2,2-trifluoroethylamino)-7H-pyrrolo[2,3-d]pyrimidin-5-yl]methanone]",37
8,"CNc1ncnc2[nH]cc(C(=O)c3ccc(NC4CCCCC4)nc3Cl)c12 [Compound P-4110, [2-chloro-6-(cyclohexylamino)-3-pyridyl]-[4-(methylamino)-7H-pyrrolo[2,3-d]pyrimidin-5-yl]methanone]",30
9,"CCc1ccc(Nc2ccc(C(=O)c3c[nH]c4ncnc(NC)c34)c(F)n2)cn1 [Compound P-4124, [6-[(6-ethyl-3-pyridyl)amino]-2-fluoro-3-pyridyl]-[4-(methylamino)-7H-pyrrolo[2,3-d]pyrimidin-5-yl]methanone]",20
